Data on one molecule can be found in ChEMBL document CHEMBL5252515, “Discovery of 6-Amino-2-{[(1S)-1-methylbutyl]oxy}-9-[5-(1-piperidinyl)pentyl]-7,9-dihydro-8H-purin-8-one (GSK2245035), a Highly Potent and Selective Intranasal Toll-Like Receptor 7 Agonist for the Treatment of Asthma” (J Med Chem, 2016).

Active and inactive are the calls of the source. The calls are words filed in the database; no cut-off is given here.

Data set [1] deals with T1, Toll-like receptor 7 (Macaca fascicularis) (UniProt B3Y652).
T1 sequence (whole entry): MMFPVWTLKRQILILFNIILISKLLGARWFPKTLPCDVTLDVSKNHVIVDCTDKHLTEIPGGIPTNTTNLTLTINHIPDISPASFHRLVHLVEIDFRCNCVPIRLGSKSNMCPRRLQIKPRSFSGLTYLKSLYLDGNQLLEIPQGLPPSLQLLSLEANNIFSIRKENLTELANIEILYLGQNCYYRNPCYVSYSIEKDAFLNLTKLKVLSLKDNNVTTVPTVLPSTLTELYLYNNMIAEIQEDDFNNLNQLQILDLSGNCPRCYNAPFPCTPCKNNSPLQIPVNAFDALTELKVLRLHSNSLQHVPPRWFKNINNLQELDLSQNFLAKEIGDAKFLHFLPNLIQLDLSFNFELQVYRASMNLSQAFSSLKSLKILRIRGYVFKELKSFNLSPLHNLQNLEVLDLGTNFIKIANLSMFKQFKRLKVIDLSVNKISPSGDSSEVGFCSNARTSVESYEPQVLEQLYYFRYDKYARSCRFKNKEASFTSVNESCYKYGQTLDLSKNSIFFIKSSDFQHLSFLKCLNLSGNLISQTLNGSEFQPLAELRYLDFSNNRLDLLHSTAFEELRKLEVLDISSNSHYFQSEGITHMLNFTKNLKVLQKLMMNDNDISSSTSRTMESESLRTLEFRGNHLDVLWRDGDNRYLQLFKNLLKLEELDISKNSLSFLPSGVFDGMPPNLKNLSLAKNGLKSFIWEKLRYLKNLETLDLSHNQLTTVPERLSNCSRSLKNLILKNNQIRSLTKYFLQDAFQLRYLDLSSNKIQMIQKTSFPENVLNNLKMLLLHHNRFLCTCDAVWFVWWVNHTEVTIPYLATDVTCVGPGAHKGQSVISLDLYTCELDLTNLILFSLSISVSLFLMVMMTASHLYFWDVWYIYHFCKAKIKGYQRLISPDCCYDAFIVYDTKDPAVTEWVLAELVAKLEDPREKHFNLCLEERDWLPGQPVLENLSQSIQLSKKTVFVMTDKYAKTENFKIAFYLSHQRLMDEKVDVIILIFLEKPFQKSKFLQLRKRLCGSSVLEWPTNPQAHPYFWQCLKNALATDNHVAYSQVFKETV
The data set can be described thus: In vivo target occupancy at TLR7 in cynomolgus monkey assessed as fold increase in GBP1 mRNA expression in nasal scrape at 30 ng/kg administered intranasally incubated for 24 hrs by TaqMan analysis (reference value: 2.4). It is filed as functional.

Data set [2] deals with Mus musculus. Description: Increase in IP-10 level in BALB/c mouse serum at 0.1 mg/kg, administered intranasally after 2 hrs by ELISA. In kind it is functional, organism-based.
In data set [3] the test system is Mus musculus. Description: Increase in IFN-alpha level in BALB/c mouse serum at 0.3 mg/kg, administered intranasally after 2 hrs by ELISA. It is filed as functional, organism-based.
Data set [4] addresses T1, Toll-like receptor 7 (Macaca fascicularis). The data set can be described thus: In vivo target occupancy at TLR7 in cynomolgus monkey assessed as fold increase in OAS2 mRNA expression in nasal scrape at 30 ng/kg administered intranasally incubated for 24 hrs by TaqMan analysis (reference value: 1). In kind it is functional.
The next data set concerns PBMC. Description: Immunomodulatory activity in human PBMC assessed as reduction in house dust mite induced IL-13 level after 6 days. In kind it is functional, cell-based. Particulars: dose 0.01-10000 nM, time 6.0 day.
A short description of data set [5]: Ocular toxicity in monkey assessed as aqueous cells and aqueous flare at 1000 ug/ml, post single dose administration after 6 hrs. The arrangement: species or system Macaca mulatta. Particulars: rhesus monkey, in vivo, dose 1000 µg/ml.
Data set [6] is described as follows: Ocular toxicity in monkey at 10 ug/ml. The arrangement: species or system Macaca mulatta. The note with it: rhesus monkey, in vivo; dose 10 µg/ml.
The target of data set [7] is T1, Toll-like receptor 7 (Macaca fascicularis). The data set can be described thus: In vivo target occupancy at TLR7 in cynomolgus monkey assessed as fold increase in IFIT2 mRNA expression in nasal scrape at 30 ng/kg administered intranasally incubated for 24 hrs by TaqMan analysis (reference value: 2.1). It is filed as functional.
The target is the same in data set [8]. The data set can be described thus: In vivo target occupancy at TLR7 in cynomolgus monkey assessed as fold increase in OAS1 mRNA expression in nasal scrape at 30 ng/kg administered intranasally incubated for 24 hrs by TaqMan analysis (reference value: 1.2). In kind it is functional.
For data set [9], the target named is T2, Toll-like receptor 9 (Homo sapiens) (UniProt Q9NR96).
T2 sequence (whole entry): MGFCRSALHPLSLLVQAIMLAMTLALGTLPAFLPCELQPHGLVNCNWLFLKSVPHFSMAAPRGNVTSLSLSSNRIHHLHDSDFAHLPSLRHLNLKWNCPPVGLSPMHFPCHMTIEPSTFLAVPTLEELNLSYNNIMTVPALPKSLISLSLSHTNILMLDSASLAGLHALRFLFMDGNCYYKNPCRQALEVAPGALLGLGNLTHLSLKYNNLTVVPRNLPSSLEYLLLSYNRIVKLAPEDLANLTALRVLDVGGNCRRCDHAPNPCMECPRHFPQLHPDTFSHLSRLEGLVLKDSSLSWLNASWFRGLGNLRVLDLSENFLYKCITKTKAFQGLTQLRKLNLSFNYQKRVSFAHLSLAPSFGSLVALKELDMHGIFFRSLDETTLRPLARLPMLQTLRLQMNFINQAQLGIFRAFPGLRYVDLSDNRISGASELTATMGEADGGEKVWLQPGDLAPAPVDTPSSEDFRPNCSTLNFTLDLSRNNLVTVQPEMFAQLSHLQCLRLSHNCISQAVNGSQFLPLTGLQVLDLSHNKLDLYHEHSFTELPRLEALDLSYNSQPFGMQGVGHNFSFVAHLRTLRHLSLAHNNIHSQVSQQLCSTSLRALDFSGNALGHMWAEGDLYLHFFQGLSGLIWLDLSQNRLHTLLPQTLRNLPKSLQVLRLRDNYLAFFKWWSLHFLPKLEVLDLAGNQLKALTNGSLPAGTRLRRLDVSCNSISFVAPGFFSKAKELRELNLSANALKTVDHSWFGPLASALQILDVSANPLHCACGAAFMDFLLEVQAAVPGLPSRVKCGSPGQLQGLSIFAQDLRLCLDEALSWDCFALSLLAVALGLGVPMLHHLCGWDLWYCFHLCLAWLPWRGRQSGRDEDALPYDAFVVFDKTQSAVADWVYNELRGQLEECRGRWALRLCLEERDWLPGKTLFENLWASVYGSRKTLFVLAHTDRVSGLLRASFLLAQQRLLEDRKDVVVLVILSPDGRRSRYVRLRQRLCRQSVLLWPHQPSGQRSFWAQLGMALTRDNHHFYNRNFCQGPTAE
The data set can be described thus: Agonist activity at TLR9 (unknown origin) expressed in human HEK cells upto 50 uM by luciferase reporter assay. In kind it is cell-based.

The target of data set [10] is T1, Toll-like receptor 7 (Macaca fascicularis). The data set can be described thus: In vivo target occupancy at TLR7 in cynomolgus monkey assessed as fold increase in GBP1 mRNA expression in nasal scrape at 3 ng/kg administered intranasally incubated for 24 hrs by TaqMan analysis (reference value: 2.4). In kind it is functional.
The target is the same in data set [11]. The data set can be described thus: In vivo target occupancy at TLR7 in cynomolgus monkey assessed as fold increase in OAS3 mRNA expression in nasal scrape at 30 ng/kg administered intranasally incubated for 24 hrs by TaqMan analysis (reference value: 0.9). In kind it is functional.

Regarding `CCC[C@H](C)Oc1nc(N)c2[nH]c(=O)n(CCCCCN3CCCCC3)c2n1` [GSK-2245035], the fold change (FC) in data set [1] is 97.6; in data set [4], 180; in data set [7], 124; in [8], 53.7; in data set [10], 68.5; in data set [11], 101. Also, the outcome with Mus musculus [2] and in the data set on Mus musculus [3] was Active. Also, the Activity result with PBMC is “Dose-Dependent Effect”; in data set [5], “Toxic”; in [6], “Non-Toxic”. Besides, the outcome in data set [9] was inactive.
